Data as given in patent publication US12318365B2, “Inhibition of dipeptide repeat proteins” (ALS Therapy Development Institute, priority 2019, dated 2025).
“Also recorded” adds a separate entry of the source. No end group written: not given here.

System: NSC-34 motor-neuron-like cells
Assay: WST-1 assay (dysmetabolism) in NSC-34 cells
Format: cell-based, Mouse
Details: for reduction of metabolic activity in NSC-34 compared to CHO: DRP 30 and 3 μM, 48 h
Source text: WST-1 Assay: The WST-1 assay is a colorimetric assay that measures cell metabolism. Cells with a healthy metabolism contain mitochondrial dehydrogenase enzymes that remove hydrogen atoms from certain molecules, resulting in a release of energy that the cell can use to perform critical reactions. In the WST-1 assay, a water soluble tetrazolium salt substrate (known as WST-1) is applied, which readily enters cells and their mitochondria upon application. If cells are viable, their mitochondrial dehydrogenase enzymes will catalyze the reaction to convert this WST-1 substrate to a colored product called Formazan. The production of this colored Formazan product by viable cells can be quantified using a spectrophotometer (plate reader). Higher absorbance readings correspond to greater metabolic activity/cell viability.
NSC-34 Cell Culture: NSC-34 cells (Cedarlane Laboratories, Burlington, ON, CA) were cultured in a complete medium consisting of High Glucose Dulbecco's Modified Eagle Medium (Millipore-Sigma, Burlington, MA, USA) supplemented with 10% US-origin fetal bovine serum (Thermo-Fisher Scientific, Cambridge, MA, USA), 1% 200 mM L-Glutamine solution (Thermo-Fisher Scientific, Cambridge, MA, USA), and 1% 10,000 U/mL Penicillin-Streptomycin solution (Thermo-Fisher Scientific, Cambridge, MA, USA). Prior to preparation of NSC-34 complete medium, L-Glutamine and Penicillin-Streptomycin solutions were aliquoted and stored at −20° C., and DMEM/High Glucose was stored at 4°. […] Prepared complete medium, DPBS, and Trypsin were always heated in a 37° C. water bath before use, and stored at 4° C. between uses. Cell counts for plating were performed using a Hausser Scientific cell counting chamber (Thermo-Fisher Scientific, Cambridge, MA, USA).
Proteins were reconstituted in sterile DMSO (Millipore-Sigma, Burlington, MA, USA) to stock concentrations of 10 mM, and stored at 4° C.
After reconstitution using the solvents specified in Table _, stocks were aliquoted to 15-20 μL and immediately stored at −20° C.
One row on the top and bottom of the plate, and two columns on either side of the plate, were left without cells and contained culture medium only to minimize experimental well volume evaporation. After plating, cells were incubated for 24 h at 37° C., 5% CO2 prior to DRP and/or PRMT inhibitor addition. At time of DRP/PRMT inhibitor addition, desired doses of DRP for challenge and inhibitor for treatment were achieved by diluting aliquots of each stock in warm culture medium. During experiments where both PRMT inhibitors and DRPs were used, PRMT inhibitors were always applied to wells first, and followed by DRP application. […] Inhibitor toxicity controls were included as wells treated with the desired doses of drug for the experiment, but no DRP. DRP toxicity controls were included as wells only treated with the doses of DRP used for challenge. […] Additional controls needed for each endpoint are specified in the “WST-1 Assay” and “LDH Assay” sections of these methods.
WST-1 Assay: Cells were plated and prepared using the steps described in the “Plating NSC-34 and Dosing with DRPs and PRMT Inhibitors” section of these methods. Other controls for this experiment included wells containing only cells in culture medium, and culture medium only. At time of testing, culture medium was removed from wells and replaced with a warmed, sterile-filtered solution consisting of DPBS with calcium and magnesium, and 4.5 g/L D-glucose (Millipore-Sigma, Burlington, MA, USA). To wells containing 200 μL DPBS-glucose solution, 20 μL/well WST-1 reagent (Millipore-Sigma, Burlington, MA) was applied and plates were then incubated at 37° C., 5% CO2 for 1 h before plates were read at 450 nm on a SpectraMax M3 Microplate Reader (Molecular Devices, San Jose, CA, USA). Experiments included three replicates per condition.

Compound: PRPRPRPRPRPRPRPRPRPRPRPRPRPRPR [PR15]
- reduction of metabolic activity in NSC-34 compared to CHO: significantly greater reduction of metabolic activity in NSC-34

Compound: CC(C)Oc1ccc(-c2c[nH]cc2CN(C)CCN)cc1 [MS023]
- abrogation of ADMe-GR15-induced dysmetabolism (3 μM ADMe-GR15 challenge, 24 h, MS023 0.1-10 μM, three repeats): did not abrogate
- lowest dose with significant partial abrogation of dysmetabolism in GR-treated cells (3 μM GR15, 24 h, MS023 0.01-3 μM): 0.1 µM
- dose dependence of abrogation of GR15-induced dysmetabolism (3 μM GR15 challenge, 24 h, dose range of the example): in a dose-dependent manner; also recorded: consistently dose-dependently abrogated
- abrogation of GR-induced dysmetabolism (3 μM GR15 challenge, 24 h, inhibitor dose 3 μM): abrogated GR-induced dysmetabolism
- abrogation of GR15-induced dysmetabolism (3 μM GR15 challenge, 24 h, inhibitor doses 1 and 3 μM): completely abrogated
- relative potency against GR- vs PR-induced dysmetabolism (3 μM GR15 or PR15, 24 h, MS023 0.01-3 μM): more potently abrogated GR-induced dysmetabolism
- lowest dose with significant partial abrogation of dysmetabolism in PR-treated cells (3 μM PR15, 24 h, MS023 0.01-3 μM): 0.3 µM
- dose dependence of abrogation of PR15-induced dysmetabolism (3 μM PR15 challenge, 24 h, dose range of the example): in a dose-dependent manner; also recorded: dose-dependently abrogated
- abrogation of PR15-induced dysmetabolism (3 μM PR15 challenge, 24 h, inhibitor doses 1 and 3 μM): completely abrogated
- dysmetabolism independently of DRP challenge (no DRP, over all doses tested): No doses of MS023 tested induced dysmetabolism; also recorded: No doses of MS023 tested produced dysmetabolism

Compound: GRGRGRGRGRGRGRGRGRGRGRGRGRGRGR [GR15]
- dysmetabolism induced by DRP challenge (DRP 10 nM-3 μM, 24 h): induced dose-dependent dysmetabolism
- reduction of metabolic activity in NSC-34 compared to CHO: significantly greater reduction of metabolic activity in NSC-34
